Read-outs that look alike come from different tables or passages of the source.
Columns and labels:
[1] = test system: IFNγ-induced NO production in Raw 264.7 cells; assay: Nitric oxide assay: suppression of IFNγ-induced NO production (Griess nitrite, adjusted to live cell numbers); type: cell-based; conditions: Mus musculus, RAW264.7, 2 h pretreatment, IFNγ 10 ng/ml for 24 hours
Experimental: Raw 264.7 cells were seeded in 96-well plates at a density of 30, 000 cells per well in DMEM+10% FBS and incubated overnight. The next day, cell media was replaced by DMEM+2% FBS. Cells were pretreated with DMSO or test compounds (top dose 100 nM, 1:4 serial dilution, 10-point) for 2 hours and then treated with recombinant mouse IFNγ (R&D, Cat# 485-MI-100) at a final concentration of 10 ng/ml for 24 hours. Nitrite levels were measured in culture media as a surrogate for nitric oxide using the Griess Reagent System (Promega, Cat# G2930). Cell viability was determined using CellTiter Glo reagents (Promega, Cat#G7572). The nitrite levels were adjusted to live cell numbers and inhibition percentage was calculated. The inhibition percentage was then plotted against compound concentration, and IC50 values were calculated using four-parameter algorithm in Graphpad Prism.

[2] = test system: NQO1; assay: NQO1 activity assay in Raw264.7 cell lysates; type: cell-based; conditions: Mus musculus; Raw264.7 cells, 48 hours treatment
Experimental: Raw264.7 cells were seeded in DMEM+10% FBS in 96-well plates at a density of 10,000 cells per well. 6 hours after plating, cells were treated with DMSO or test compounds (top dose 100 nM, 1:4 serial dilution, 8-point) for 48 hours. NQO1 activity was then detected in cell lysates using NQO1 activity assay kit (Abeam, Cat#ab184867). NQO1 activity was then plotted against compound concentration, and EC50 values were calculated using four-parameter algorithm in Graphpad Prism.

[3] = Metabolic stability in mouse liver microsomes; type: in vitro ADME, CD-1 mouse; conditions: CD-1
Experimental: (§1) The metabolic stability of test compounds was examined in CD-1 mouse, Sprague Dawley rat, Beagle dog, cynomolgus monkey, and human liver microsomes. Test compound (final concentration 1 μM) was mixed with diluted liver microsomes from each of the 5 species and a small aliquot was taken at 0, 5, 10, 20, 30, and 60 minutes for LC/MS/MS analysis. Intrinsic clearance and half-life were calculated.

[4] = Pharmacokinetic studies in Sprague Dawley rats (oral gavage and IV); type: in vivo; conditions: rat, male SD rats, plasma; for AUC(0-t): read-out: AUC0-24 h; for bioavailability: oral 5 mg/kg vs IV 1 mg/kg, read-out: Bioavailibility F %
Experimental: The pharmacokinetics of test compounds was evaluated in male SD rats when administered via oral gavage and IV injection. For oral dosing, compound was formulated in 0.5% methylcellulose and administered at doses of 5 mg/kg (3 rats per dose level) and volume of 10 mL/kg. For IV dosing, compound was formulated in 5% DMSO/5% Solutol/90% saline and administered to 3 rats at a dose of 1 mg/kg and a volume of 5 mL/kg. The rats were fasted overnight before administration. Plasma samples were collected predose and at 0.5, 1, 3, 6, 9, 12, and 24 hours postdose. The samples were analyzed by LC/MS/MS and the concentration of test compound at each timepoint was determined by linear regression. Pharmacokinetic parameters were calculated from the plasma concentrations using Pheonix WinNonlin.

[5] = Metabolic stability in rat liver microsomes; type: in vitro ADME; conditions: Sprague Dawley
Experimental: as §1

[6] = Metabolic stability in monkey liver microsomes; type: in vitro ADME, cynomolgus monkey
Experimental: as §1

[7] = molecular target: T1, CYP2C19 (Homo sapiens, UniProt P33261); assay: CYP450 enzyme inhibition in liver microsomes (cocktail probe incubation); type: in vitro ADME; conditions: species not given, 0.05-50 μM tested
T1 construct: studied in liver microsomes of CD-1 mouse, Sprague Dawley rat, Beagle dog, cynomolgus monkey, and human; from tissue; host or cells: liver microsomes
T1 sequence (P33261 whole entry): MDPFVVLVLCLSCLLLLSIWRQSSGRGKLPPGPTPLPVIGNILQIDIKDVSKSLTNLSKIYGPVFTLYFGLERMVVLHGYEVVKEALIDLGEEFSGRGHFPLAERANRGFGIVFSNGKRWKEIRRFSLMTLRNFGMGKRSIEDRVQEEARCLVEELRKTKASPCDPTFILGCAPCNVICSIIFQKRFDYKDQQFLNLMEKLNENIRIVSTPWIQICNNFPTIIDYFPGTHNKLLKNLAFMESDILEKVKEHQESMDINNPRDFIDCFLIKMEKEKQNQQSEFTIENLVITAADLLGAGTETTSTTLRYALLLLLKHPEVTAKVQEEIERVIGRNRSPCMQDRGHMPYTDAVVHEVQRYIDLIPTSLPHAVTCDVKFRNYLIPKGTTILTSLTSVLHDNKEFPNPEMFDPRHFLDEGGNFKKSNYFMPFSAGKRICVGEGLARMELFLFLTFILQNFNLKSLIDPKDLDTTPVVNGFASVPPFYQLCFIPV
Experimental: (§2) The inhibition potential of test compounds towards major drug metabolizing CYP450 enzymes was studied in liver microsomes of CD-1 mouse, Sprague Dawley rat, Beagle dog, cynomolgus monkey, and human. The inhibition of CYP1A2, CYP2C9, CYP2C19, CYP2D6, and CYP3A4 was assessed using CYP450 specific probe reactions in a cocktail incubation. Seven concentrations of test compounds (0.05, 0.15, 0.5, 1.5, 5, 15, and 50 μM) were evaluated. In addition, known inhibitors for each probe reaction were included as positive controls and incubated at a single concentration above their respective IC50.

[8] = molecular target: T2, CYP1A2 (Homo sapiens, UniProt P05177); assay: as above; type: in vitro ADME; conditions: species not given, 0.05-50 μM tested
T2 construct: studied in liver microsomes of CD-1 mouse, Sprague Dawley rat, Beagle dog, cynomolgus monkey, and human; from tissue; host or cells: liver microsomes
T2 sequence (P05177 1-516): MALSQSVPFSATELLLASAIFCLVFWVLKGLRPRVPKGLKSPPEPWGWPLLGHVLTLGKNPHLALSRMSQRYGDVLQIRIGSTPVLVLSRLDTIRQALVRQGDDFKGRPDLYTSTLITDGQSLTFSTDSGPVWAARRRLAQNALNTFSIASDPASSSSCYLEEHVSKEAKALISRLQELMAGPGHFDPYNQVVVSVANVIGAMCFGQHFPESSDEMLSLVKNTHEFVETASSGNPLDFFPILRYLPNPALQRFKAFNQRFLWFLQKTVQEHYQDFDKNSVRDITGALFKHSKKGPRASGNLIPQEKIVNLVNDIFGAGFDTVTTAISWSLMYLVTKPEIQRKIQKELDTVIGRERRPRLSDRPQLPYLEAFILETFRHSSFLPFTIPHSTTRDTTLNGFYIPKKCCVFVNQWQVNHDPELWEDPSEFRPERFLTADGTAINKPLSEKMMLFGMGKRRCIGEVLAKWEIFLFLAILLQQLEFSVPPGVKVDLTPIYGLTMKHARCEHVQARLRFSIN
Experimental: as §2

[9] = molecular target: T3, CYP2C9 (Homo sapiens, UniProt P11712); assay: as above; type: in vitro ADME; conditions: species not given, 0.05-50 μM tested
T3 construct: studied in liver microsomes of CD-1 mouse, Sprague Dawley rat, Beagle dog, cynomolgus monkey, and human; from tissue; host or cells: liver microsomes
T3 sequence (P11712 whole entry): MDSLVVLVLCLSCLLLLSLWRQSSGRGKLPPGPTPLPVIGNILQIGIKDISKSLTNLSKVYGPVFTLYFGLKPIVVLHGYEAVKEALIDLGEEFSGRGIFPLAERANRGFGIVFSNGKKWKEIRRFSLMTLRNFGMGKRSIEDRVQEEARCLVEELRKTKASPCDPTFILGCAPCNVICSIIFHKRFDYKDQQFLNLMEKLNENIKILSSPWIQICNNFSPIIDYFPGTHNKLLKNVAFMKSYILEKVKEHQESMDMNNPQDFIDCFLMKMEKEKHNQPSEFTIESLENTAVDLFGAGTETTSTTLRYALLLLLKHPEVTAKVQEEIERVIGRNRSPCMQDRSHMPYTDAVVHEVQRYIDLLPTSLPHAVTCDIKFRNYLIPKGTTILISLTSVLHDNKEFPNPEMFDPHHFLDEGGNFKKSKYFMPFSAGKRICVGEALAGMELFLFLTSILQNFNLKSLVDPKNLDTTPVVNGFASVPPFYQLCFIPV
Experimental: as §2

[10] = molecular target: T4, CYP2D6 (Homo sapiens, UniProt P10635); assay: as above; type: in vitro ADME; conditions: species not given, 0.05-50 μM tested
T4 construct: studied in liver microsomes of CD-1 mouse, Sprague Dawley rat, Beagle dog, cynomolgus monkey, and human; from tissue; host or cells: liver microsomes
T4 sequence (P10635 whole entry): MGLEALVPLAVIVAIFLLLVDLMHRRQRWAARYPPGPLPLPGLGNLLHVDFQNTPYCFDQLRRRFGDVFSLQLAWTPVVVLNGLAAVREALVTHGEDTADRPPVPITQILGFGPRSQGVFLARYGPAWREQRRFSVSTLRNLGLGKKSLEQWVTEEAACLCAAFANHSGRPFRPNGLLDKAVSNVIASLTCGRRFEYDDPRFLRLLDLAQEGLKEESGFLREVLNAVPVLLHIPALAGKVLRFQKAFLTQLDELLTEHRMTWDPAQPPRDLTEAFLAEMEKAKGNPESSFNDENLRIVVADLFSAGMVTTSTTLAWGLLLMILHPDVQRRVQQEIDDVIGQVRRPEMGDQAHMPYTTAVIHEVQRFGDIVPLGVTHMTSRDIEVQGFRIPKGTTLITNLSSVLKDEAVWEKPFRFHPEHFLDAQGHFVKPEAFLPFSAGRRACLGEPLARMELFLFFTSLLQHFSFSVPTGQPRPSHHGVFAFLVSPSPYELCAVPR
Experimental: as §2

[11] = molecular target: T5, CYP3A4 (Homo sapiens, UniProt P08684); assay: as above; type: in vitro ADME; conditions: species not given, 0.05-50 μM tested
T5 construct: studied in liver microsomes of CD-1 mouse, Sprague Dawley rat, Beagle dog, cynomolgus monkey, and human; from tissue; host or cells: liver microsomes
T5 sequence (P08684 whole entry): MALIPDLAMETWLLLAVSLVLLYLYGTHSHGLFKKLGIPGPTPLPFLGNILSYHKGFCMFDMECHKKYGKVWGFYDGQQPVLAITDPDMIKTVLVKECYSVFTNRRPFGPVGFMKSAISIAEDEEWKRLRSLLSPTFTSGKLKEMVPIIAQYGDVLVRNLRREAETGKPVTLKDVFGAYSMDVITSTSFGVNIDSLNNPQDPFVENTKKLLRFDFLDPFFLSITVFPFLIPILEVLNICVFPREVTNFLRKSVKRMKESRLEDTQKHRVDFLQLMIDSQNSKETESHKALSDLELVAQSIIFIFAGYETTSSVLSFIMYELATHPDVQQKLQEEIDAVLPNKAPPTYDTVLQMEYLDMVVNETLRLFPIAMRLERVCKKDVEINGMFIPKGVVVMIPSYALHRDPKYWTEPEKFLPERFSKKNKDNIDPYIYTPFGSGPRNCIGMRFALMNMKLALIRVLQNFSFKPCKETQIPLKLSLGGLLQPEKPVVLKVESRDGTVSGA
Experimental: as §2

[12] = Metabolic stability in human liver microsomes; type: in vitro ADME
Experimental: as §1

[13] = Metabolic stability in dog liver microsomes; type: in vitro ADME; conditions: Beagle
Experimental: as §1

Structure (SMILES) | IC50 [1] | EC50 [2] | CLint scaled at 1 μM [3] | half-life at 1 μM [3] | C0 ([4]; IV (1 mg/kg)) | clearance ([4]; IV (1 mg/kg)) | half-life ([4]; IV (1 mg/kg)) | CLint scaled at 1 μM [5] | half-life at 1 μM [5] | CLint scaled at 1 μM [6] | half-life at 1 μM [6] | IC50 [7] | IC50 [8] | IC50 [9] | IC50 [10] | IC50 [11] | CLint scaled at 1 μM [12] | half-life at 1 μM [12] | CLint scaled at 1 μM [13] | half-life at 1 μM [13] | also measured
C/S(CC(=O)N[C@]12CCC(C)(C)C[C@H]1[C@H]1C(=O)C=C3[C@@]4(C)C=C(C#N)C(=O)C(C)(C)[C@@H]4CC[C@@]3(C)[C@]1(C)CC2)=N\C#N (stereo partly drawn) [Example 5, N-((4aS,6aR,6bS,8aR,12aS,14aR,14bS)-11-cyano-2,2,6a,6b,9,9,12a-heptamethyl-10,14-dioxo-1,3,4,5,6,6a,6b,7,8,8a,9,10,12a,14,14a,14b-hexadecahydropicen-4a(2H)-yl)-2-((E)-N-cyano-S-methylsulfinimidoyl)acetamide] | < 0.01 µM | 0.01 to 0.1 µM |  |  |  |  |  |  |  |  |  |  |  |  |  |  |  |  |  |  | 
CC1(C)C(=O)C(C#N)=C[C@]2(C)C3=CC(=O)[C@@H]4[C@@H]5C[C@@](C)(C#N)CC[C@]5(C)CC[C@@]4(C)[C@]3(C)CC[C@@H]12 [Example 2, (2S,4aS,6aR,6bS,8aR,12aS,14aR,14bS)-2,4a,6a,6b,9,9,12a-heptamethyl-10,14-dioxo-1,2,3,4,4a,5,6,6a,6b,7,8,8a,9,10,12a,14,14a,14b-octadecahydropicene-2,11-dicarbonitrile] |  | < 0.01 µM | 1750 mL/min/kg | 3.1 min | 500 ng/mL | 53 mL/min/kg | 72 min | 157 mL/min/kg | 15.9 min | 782 mL/min/kg | 2.4 min | 25.4 µM | > 50 µM | 2.2 µM | 20.2 µM | 1.7 µM | 397 mL/min/kg | 3.1 min | 313 mL/min/kg | 6.4 min | AUC(0-t) ([4]; IV (1 mg/kg)): 314 ng·h/mL; Cmax ([4]; Oral (5 mg/kg)): 177 ng/mL; half-life ([4]; Oral (5 mg/kg)): 78 min; AUC(0-t) ([4]; Oral (5 mg/kg)): 521 ng·h/mL; bioavailability [4]: 33.2%
CNC(=NC#N)NC[C@]12CCC(C)(C)C[C@H]1[C@H]1C(=O)C=C3[C@@]4(C)C=C(C#N)C(=O)C(C)(C)[C@@H]4CC[C@@]3(C)[C@]1(C)CC2 [Example 3, 2-cyano-1-(((4aS,6aR,6bS,8aR,12aS,14aR,14bS)-11-cyano-2,2,6a,6b,9,9,12a-heptamethyl-10,14-dioxo-1,3,4,5,6,6a,6b,7,8,8a,9,10,12a,14,14a,14b-hexadecahydropicen-4a(2H)-yl)methyl)-3-methylguanidine] | < 0.01 µM | 0.01 to 0.1 µM | 150 mL/min/kg | 36.5 min |  |  |  | 50.3 mL/min/kg | 49.6 min | 156 mL/min/kg | 12 min | 17.8 µM | > 50 µM | 3.4 µM | 4.7 µM | 6.7 µM | 50.7 mL/min/kg | 24.6 min | 81.6 mL/min/kg | 24.5 min | 
CC1(C)C(=O)C(C#N)=C[C@]2(C)C3=CC(=O)[C@@H]4[C@@H]5C[C@@](C)(N6CCC(O)C6)CC[C@]5(C)CC[C@@]4(C)[C@]3(C)CC[C@@H]12 (stereo partly drawn) [Example 20, (4aR,6aS,6bR,8aS,11S,12aS,12bR,14bS)-11-(3-hydroxypyrrolidin-1-yl)-4,4,6a,6b,8a,11,14b-heptamethyl-3,13-dioxo-3,4,4a,5,6,6a,6b,7,8,8a,9,10,11,12,12a,12b,13,14b-octadecahydropicene-2-carbonitrile] | < 0.01 µM | < 0.01 µM |  |  |  |  |  |  |  |  |  | 18.9 µM | > 50 µM | 8.6 µM | > 50 µM | 3.2 µM |  |  |  |  | 
CC1(C)C(=O)C(C#N)=C[C@]2(C)C3=CC(=O)[C@@H]4[C@@H]5C[C@@](C)(c6nnco6)CC[C@]5(C)CC[C@@]4(C)[C@]3(C)CC[C@@H]12 [Example 9, (4aR,6aS,6bR,8aS,11S,12aS,12bR,14bS)-4,4,6a,6b,8a,11,14b-heptamethyl-11-(1,3,4-oxadiazol-2-yl)-3,13-dioxo-3,4,4a,5,6,6a,6b,7,8,8a,9,10,11,12,12a,12b,13,14b-octadecahydropicene-2-carbonitrile] | < 0.01 µM |  | 186 mL/min/kg | 29.5 min | 427 ng/mL | 56 mL/min/kg | 90 min | 72.1 mL/min/kg | 34.6 min | 270 mL/min/kg | 6.9 min | 13.3 µM | > 50 µM | 3.1 µM | 28.7 µM | 0.3 µM | 94 mL/min/kg | 13.3 min | 104 mL/min/kg | 19.1 min | AUC(0-t) ([4]; IV (1 mg/kg)): 301 ng·h/mL; Cmax ([4]; Oral (5 mg/kg)): 143 ng/mL; half-life ([4]; Oral (5 mg/kg)): 132 min; AUC(0-t) ([4]; Oral (5 mg/kg)): 333 ng·h/mL; bioavailability [4]: 22.1%
